Eight compounds from publication PMC6274419, “Synthesis and Anticancer Activities of Glycyrrhetinic Acid Derivatives” (Molecules, 2016) can be followed below.

Structures can show the parent of a compound that is named as a salt. Where two headings read alike, the source gives them in different places.

The test system of series [1] is MCF-7 cells. The series is described as follows: MTT cytotoxicity assay, MCF-7. To be noted: read-out: IC50 MCF-7. Format: cell-based, human. The protocol: (§1) The anticancer activities of compounds 17–24, 41–56 against MCF-7, MDA-MB-231 and hTERT-RPE1 cells were determined in vitro by an MTT assay. […] The data was calculated and presented as IC50 values in Table 1.
(§2) The cytotoxicities of the compounds were evaluated by the MTT assay, which is based on the conversion of MTT to formazan crystals by mitochondrial dehydrogenases. […] The medium was incubated with 20 μL of 5 mg/mL MTT solution for 3 h in a humidified incubator containing 5% CO2. The purple coloured formazan crystals formed in the wells were dissolved in DMSO and their absorbances were measured at 570 nm with a microplate reader. Cell viability was expressed as a percentage of the value in control cultures.
A general note: Tetrazolium dyes change colour on reduction, which living cells bring about.

Series [2] has as its system MDA-MB-231 cells. The series is described as follows: MTT cytotoxicity assay, MDA-MB-231. To be noted: read-out: IC50 MDA-MB-231. Format: cell-based, human. As to the method: The data was calculated and presented as IC50 values in Table 1.
as §2

For series [3], the system named is hTERT-RPE1 cells. The series is described as follows: MTT cytotoxicity assay, hTERT-RPE1 normal cells. It is filed as cell-based, human. The note with it: read-out: IC50 hTERT-RPE1. The protocol: as §1, §2
[4] abbreviates: MCF7, human breast cancer cell line MCF-7, MTT method, 24 h treatment, mean ± SD.
The mark [5] stands for this setting: human breast cancer cell line MDA-MB-231, MTT method, 24 h treatment, mean ± SD.
Where [6] appears, read: normal human retinal pigment epithelial cell line hTERT-RPE1, MTT method, 24 h treatment, mean ± SD.

In general, melting point refers to the temperature, or range, at which the solid turns liquid. For the compound `COC(=O)/C=C/c1ccc(OC(=O)[C@@]2(C)CC[C@]3(C)CC[C@]4(C)C(=CC(=O)[C@@H]5[C@@]6(C)CC[C@H](OC(=O)[C@@H](N)CCSC)C(C)(C)[C@@H]6CC[C@]54C)[C@@H]3C2)c(OC)c1` (as salt: hydrochloride) [Compound 41, Ferulic acid methyl ester 3β-(l-methionine)-11-oxo-olean-12-en-30-oate hydrochloride], the melting point lay within 203 to 205 °C.
On the same count and under the same terms, to `CCOC(=O)/C=C/c1ccc(OC(=O)[C@@]2(C)CC[C@]3(C)CC[C@]4(C)C(=CC(=O)[C@@H]5[C@@]6(C)CC[C@H](OC(=O)[C@@H](N)CCSC)C(C)(C)[C@@H]6CC[C@]54C)[C@@H]3C2)cc1` (as salt: hydrochloride) [Compound 47, trans-4-Hydroxycinnamic acid ethyl ester 3β-(l-methionine)-11-oxo-olean-12-en-30-oatehydrochloride] belongs 202 to 204 °C; to `COC(=O)/C=C/c1cccc(OC(=O)[C@@]2(C)CC[C@]3(C)CC[C@]4(C)C(=CC(=O)[C@@H]5[C@@]6(C)CC[C@H](OC(=O)[C@@H](N)CC[Se]C)C(C)(C)[C@@H]6CC[C@]54C)[C@@H]3C2)c1` (as salt: hydrochloride) [Compound 54, trans-3-Hydroxycinnamic acid methyl ester 3β-(l-selenomethionine)-11-oxo-olean-12-en-30-oate hydro-chloride], 194 to 196 °C.
Still for that read-out and setting: the value for `COC(=O)/C=C/c1ccc(OC)c(OC(=O)[C@@]2(C)CC[C@]3(C)CC[C@]4(C)C(=CC(=O)[C@@H]5[C@@]6(C)CC[C@H](OC(=O)[C@@H](N)CC[Se]C)C(C)(C)[C@@H]6CC[C@]54C)[C@@H]3C2)c1` (as salt: hydrochloride) [Compound 50, Isoferulic acid methyl ester 3β-(l-selenomethionine)-11-oxo-olean-12-en-30-oate hydrochloride] was 201 to 203 °C.
On the same count and under the same terms, to `COC(=O)/C=C/c1ccc(OC)c(OC(=O)[C@@]2(C)CC[C@]3(C)CC[C@]4(C)C(=CC(=O)[C@@H]5[C@@]6(C)CC[C@H](OC(=O)[C@@H](N)CCSC)C(C)(C)[C@@H]6CC[C@]54C)[C@@H]3C2)c1` (as salt: hydrochloride) [Compound 49, Isoferulic acid methyl ester 3β-(l-methionine)-11-oxo-olean-12-en-30-oate hydrochloride] belongs 199 to 201 °C.
One may read the IC50 as the point on the concentration scale where inhibition reaches its midpoint. `COC(=O)/C=C/c1ccc(OC)c(OC(=O)[C@@]2(C)CC[C@]3(C)CC[C@]4(C)C(=CC(=O)[C@@H]5[C@@]6(C)CC[C@H](OC(=O)[C@@H](N)CCSC)C(C)(C)[C@@H]6CC[C@]54C)[C@@H]3C2)c1` [Compound 49, Isoferulic acid methyl ester 3β-(l-methionine)-11-oxo-olean-12-en-30-oate hydrochloride]: the IC50 came out at 8.7 ± 0.14 µM in series [1] (setting [4]), 4.56 ± 0.36 µM in series [2] (setting [5]) and 8.92 ± 0.55 µM in series [3] (setting [6]).
Consider `COC(=O)/C=C/c1ccc(OC(=O)[C@@]2(C)CC[C@]3(C)CC[C@]4(C)C(=CC(=O)[C@@H]5[C@@]6(C)CC[C@H](OC(=O)[C@@H](N)CC[Se]C)C(C)(C)[C@@H]6CC[C@]54C)[C@@H]3C2)c(OC)c1` [Compound 42, Ferulic acid methyl ester 3β-(l-selenomethionine)-11-oxo-olean-12-en-30-oate hydrochloride], for which the IC50 stood at 1.88 ± 0.2 µM in series [1] (Homo sapiens, MCF7, 24 h); 1.37 ± 0.18 µM in series [2] (Homo sapiens, MDA-MB-231, 24 h); 4.93 ± 0.36 µM in series [3] (Homo sapiens, hTERT-RPE1, 24 h).
Take `COC(=O)/C=C/c1cccc(OC(=O)[C@@]2(C)CC[C@]3(C)CC[C@]4(C)C(=CC(=O)[C@@H]5[C@@]6(C)CC[C@H](OC(=O)[C@@H](N)CCSC)C(C)(C)[C@@H]6CC[C@]54C)[C@@H]3C2)c1` [Compound 53, trans-3-Hydroxycinnamic acid methyl ester 3β-(l-methionine)-11-oxo-olean-12-en-30-oate hydrochloride]: the IC50 in series [1] (setting [4]) was found to be 7.2 ± 0.55 µM; in series [2] (setting [5]), 3.54 ± 0.46 µM; in series [3] (setting [6]), 8.49 ± 0.51 µM.
